Assay results reported in US20190100534A1, “Cephem Compounds with Latent Reactive Groups” (Gladius Pharmaceuticals, Inc., priority 2017, published 2019).

What was measured:
[1] = test system: ENC (ATCC NDM-1); assay: MIC determination; type: cell-based, Enterobacter cloacae; settings: CAMH broth, 20 μM Apo-Transferrin, 37° C., 18 hours
Protocol: (§1) Sterile technique was used throughout these experiments. Suspensions of organisms were removed from storage (−80° C.) and partially thawed. Partially thawed organisms (1 μL) were inoculated into 3 mL sterile LB Broth in a sterile culture tube and capped, then cultured at 37° C. with shaking for 4-5 hours until the optical density at 600 nm (OD600) was greater than 0.1 on a single beam spectrophotometer.
(§2) The concentration of organisms was adjusted to 0.08-0.1 OD600 (0.5 McFarland units) by dilution with sterile cation-adjusted Meuller-Hinton (CAMH) broth. The suspensions were used within 30 minutes of preparation.
(§3) A stock solution was made of each test compound by measuring 6.4 mg of the compound on an analytical balance and dissolving it in DMSO (1 mL) to get a transparent solution. The solutions were stored at −20° C. and thawed prior to use.
(§4) Sterile CAMH broth (200 μL) containing 20 μM Apo-Transferrin was pipetted into the first row of 8 columns of a sterile, round-bottomed, transparent, 96-well microplate using an 8-channel pipette equipped with sterile tips. One hundred μL was pipetted into the wells of the remaining 11 rows.
(§5) With an 8-channel pipette equipped with sterile tips, 100 μL of the first row solution was transferred to the second row and mixed. The process was repeated for the second to third rows and continued through row 11. One hundred μL from row 11 was removed and discarded so that all 12 rows contained 100 μL. Row 12 contained no compound and rows 1-11 contained 64, 32, 16, 8, 4, 2, 1, 0.5, 0.25, 0.125, […] of a given compound.
(§6) Inoculant suspensions (0.5 μL) were added to the 12 wells of each column. The plates were then covered and incubated at 37° C. overnight for 18 hours.
(§7) For each organism the MIC was determined by identifying the transparent well with the lowest test compound concentration.

[2] = test system: KP(ATCC TEM-10/TEM-12); type: cell-based, Klebsiella pneumoniae; settings: CAMH broth, 20 μM Apo-Transferrin, 37° C., 18 hours
Protocol: as §1, §2, §3, §4, §5, §6, §7

[3] = test system: Pseudomonas aeruginosa PA-RR-(980151052); assay: MIC determination; type: cell-based; settings: Pseudomonas aeruginosa; PA-RR-(980151052); CAMH broth, 20 μM Apo-Transferrin, 37° C., 18 hours; read-out: Minimum Inhibitory Concentrations, PA-RR-(980151052)
In short: (§8)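 Overnight (18 h, 37 °C) microdilution assay. Pre-grown LB cultures were brought to 0.08-0.1 OD600 in cation-adjusted Mueller-Hinton broth; wells contained 20 μM apo-transferrin and compound between 64 and 0.125 μg/mL. Lowest clear-well concentration recorded as MIC.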

[4] = test system: Pseudomonas aeruginosa PA-RR-(98023895); assay: MIC determination; type: cell-based; settings: Pseudomonas aeruginosa; PA-RR-(98023895); CAMH broth, 20 μM Apo-Transferrin, 37° C., 18 hours; read-out: Minimum Inhibitory Concentrations, PA-RR-(98023895)
In short: as §8

[5] = test system: Pseudomonas aeruginosa PA (RR-2); assay: MIC determination; type: cell-based; settings: Pseudomonas aeruginosa; PA (RR-2); CAMH broth, 20 μM Apo-Transferrin, 37° C., 18 hours; read-out: Minimum Inhibitory Concentrations, PA (RR-2)
In short: as §8

[6] = test system: Pseudomonas aeruginosa PA-RR-(G7304100); assay: MIC determination; type: cell-based; settings: Pseudomonas aeruginosa; PA-RR-(G7304100); CAMH broth, 20 μM Apo-Transferrin, 37° C., 18 hours; read-out: Minimum Inhibitory Concentrations, PA-RR-(G7304100)
In short: as §8

[7] = test system: Pseudomonas aeruginosa PA (URMC-3); assay: MIC determination; type: cell-based; settings: Pseudomonas aeruginosa; PA (URMC-3); CAMH broth, 20 μM Apo-Transferrin, 37° C., 18 hours; read-out: Minimum Inhibitory Concentrations, PA (URMC-3)
In short: as §8

[8] = test system: Pseudomonas aeruginosa PA-RR-(G7305586); assay: MIC determination; type: cell-based; settings: Pseudomonas aeruginosa; PA-RR-(G7305586); CAMH broth, 20 μM Apo-Transferrin, 37° C., 18 hours; read-out: Minimum Inhibitory Concentrations, PA-RR-(G7305586)
In short: as §8

[9] = test system: CF (RR -1); assay: MIC determination; type: cell-based, Citrobacter freundii; settings: CAMH broth, 20 μM Apo-Transferrin, 37° C., 18 hours
Protocol: as §1, §2, §3, §4, §5, §6, §7

[10] = test system: EC (URMC-1); assay: MIC determination; type: cell-based, Escherichia coli; settings: Escherichia coli, CAMH broth, 20 μM Apo-Transferrin, 37° C., 18 hours, read-out: Minimum Inhibitory Concentrations, EC (URMC-1)
Protocol: as §1, §2, §3, §4, §5, §6, §7

[11] = test system: EC (RR -1); assay: MIC determination; type: cell-based, Escherichia coli; settings: CAMH broth, 20 μM Apo-Transferrin, 37° C., 18 hours
Protocol: as §1, §2, §3, §4, §5, §6, §7

[12] = test system: EC (RR -2); assay: MIC determination; type: cell-based, Escherichia coli; settings: CAMH broth, 20 μM Apo-Transferrin, 37° C., 18 hours
Protocol: as §1, §2, §3, §4, §5, §6, §7

[13] = test system: EC(KB2 CTX-M-15); assay: MIC determination; type: cell-based, Escherichia coli; settings: Escherichia coli, CAMH broth, 20 μM Apo-Transferrin, 37° C., 18 hours, read-out: Minimum Inhibitory Concentrations, EC(KB2 CTX-M-15)
Protocol: as §1, §2, §3, §4, §5, §6, §7

[14] = test system: EC(KB1 CTX-M-15); assay: MIC determination; type: cell-based, Escherichia coli; settings: Escherichia coli, CAMH broth, 20 μM Apo-Transferrin, 37° C., 18 hours, read-out: Minimum Inhibitory Concentrations, EC(KB1 CTX-M-15)
Protocol: as §1, §2, §3, §4, §5, §6, §7

[15] = test system: EC(ATCC NDM-1); assay: MIC determination; type: cell-based, Escherichia coli; settings: Escherichia coli, CAMH broth, 20 μM Apo-Transferrin, 37° C., 18 hours, read-out: Minimum Inhibitory Concentrations, EC(ATCC NDM-1)
Protocol: as §1, §2, §3, §4, §5, §6, §7

[16] = test system: EC (URMC-3); assay: MIC determination; type: cell-based, Escherichia coli; settings: Escherichia coli, CAMH broth, 20 μM Apo-Transferrin, 37° C., 18 hours, read-out: Minimum Inhibitory Concentrations, EC (URMC-3)
Protocol: as §1, §2, §3, §4, §5, §6, §7

[17] = test system: EC(JMI OXA-48); assay: MIC determination; type: cell-based, Escherichia coli; settings: Escherichia coli, CAMH broth, 20 μM Apo-Transferrin, 37° C., 18 hours, read-out: Minimum Inhibitory Concentrations, EC(JMI OXA-48)
Protocol: as §1, §2, §3, §4, §5, §6, §7

[18] = test system: EC (URMC-2); assay: MIC determination; type: cell-based, Escherichia coli; settings: Escherichia coli, CAMH broth, 20 μM Apo-Transferrin, 37° C., 18 hours, read-out: Minimum Inhibitory Concentrations, EC (URMC-2)
Protocol: as §1, §2, §3, §4, §5, §6, §7

[19] = test system: A. baumannii; assay: MIC determination; type: cell-based, Acinetobacter baumannii; settings: Acinetobacter baumannii; A. baumannii; CAMH broth, 20 μM Apo-Transferrin, 37° C., 18 hours; read-out: Minimum Inhibitory Concentrations, A. baumannii
Protocol: as §1, §2, §3, §4, §5, §6, §7

[20] = test system: KP(GJ 5934 TEM-26); assay: MIC determination; type: cell-based, Klebsiella pneumoniae; settings: CAMH broth, 20 μM Apo-Transferrin, 37° C., 18 hours
Protocol: as §1, §2, §3, §4, §5, §6, §7

[21] = test system: KP (ATCC KPC-3); assay: MIC determination; type: cell-based, Klebsiella pneumoniae; settings: CAMH broth, 20 μM Apo-Transferrin, 37° C., 18 hours
Protocol: as §1, §2, §3, §4, §5, §6, §7

[22] = test system: KP(JMI KPC-2); assay: MIC determination; type: cell-based, Klebsiella pneumoniae; settings: CAMH broth, 20 μM Apo-Transferrin, 37° C., 18 hours
Protocol: as §1, §2, §3, §4, §5, §6, §7

[23] = test system: KP (GJ 5659 TEM-26); assay: MIC determination; type: cell-based, Klebsiella pneumoniae; settings: CAMH broth, 20 μM Apo-Transferrin, 37° C., 18 hours
Protocol: as §1, §2, §3, §4, §5, §6, §7

[24] = test system: KP (URMC-3); assay: MIC determination; type: cell-based, Klebsiella pneumoniae; settings: CAMH broth, 20 μM Apo-Transferrin, 37° C., 18 hours
Protocol: as §1, §2, §3, §4, §5, §6, §7

[25] = test system: KP (RR -1); assay: MIC determination; type: cell-based, Klebsiella pneumoniae; settings: CAMH broth, 20 μM Apo-Transferrin, 37° C., 18 hours
Protocol: as §1, §2, §3, §4, §5, §6, §7

[26] = test system: KP (URMC-2); assay: MIC determination; type: cell-based, Klebsiella pneumoniae; settings: CAMH broth, 20 μM Apo-Transferrin, 37° C., 18 hours
Protocol: as §1, §2, §3, §4, §5, §6, §7

[27] = test system: KP (URMC-1); assay: MIC determination; type: cell-based, Klebsiella pneumoniae; settings: CAMH broth, 20 μM Apo-Transferrin, 37° C., 18 hours
Protocol: as §1, §2, §3, §4, §5, §6, §7

| SMILES | Mimimum Inhibitory Concentrations, ENC (ATCC NDM-1) [1] [microgram/mL] | Minimum Inhibitory Concentrations, KP(ATCC TEM-10/TEM-12) [2] [microgram/mL] | MIC [3] [µg/mL] | MIC [4] [µg/mL] | MIC [5] [µg/mL] | MIC [6] [µg/mL] | MIC [7] [µg/mL] | MIC [8] [µg/mL] | Mimimum Inhibitory Concentrations, CF (RR -1) [9] [microgram/mL] | MIC [10] [µg/mL] | Mimimum Inhibitory Concentrations, EC (RR -1) [11] [microgram/mL] | MIC [13] [µg/mL] | MIC [14] [µg/mL] | MIC [15] [µg/mL] | MIC [17] [µg/mL] | MIC [19] [µg/mL] | Minimum Inhibitory Concentrations, KP(GJ 5934 TEM-26) [20] [microgram/mL] | Minimum Inhibitory Concentrations, KP (ATCC KPC-3) [21] [microgram/mL] | Minimum Inhibitory Concentrations, KP(JMI KPC-2) [22] [microgram/mL] | Minimum Inhibitory Concentrations, KP (GJ 5659 TEM-26) [23] [microgram/mL] | also measured |
| --- | --- | --- | --- | --- | --- | --- | --- | --- | --- | --- | --- | --- | --- | --- | --- | --- | --- | --- | --- | --- | --- |
| CC(C)(O/N=C(\C(=O)N[C@@H]1C(=O)N2C(C(=O)O)=C(C=Cc3ccc(C[N+]4(C)CCc5cc(O)c(O)cc5C4)cc3)CS[C@H]12)c1csc(N)n1)C(=O)O (mixture of isomers) [Compound 407, 2-(4-((E/Z)-2-((6R,7R)-7-((Z)-2-(2-aminothiazol-4-yl)-2-(((2-carboxypropan-2-yl)oxy)imino)acetamido)-2-carboxy-8-oxo-5-thia-1-azabicyclo[4.2.0]oct-2-en-3 yl)vinyl)benzyl)-6,7-dihydroxy-2-methyl-1,2,3,4-tetrahydroisoquinolin-2-ium] | >64 | 0.25 | 0.06 | 0.13 | 2 | 0.03 | 0.25 | 0.03 | 0.13 | 0.25 | 0.13 | > 64 | > 64 | > 64 | 16 | 2 | 2 | 64 | 16 | 2 | Mimimum Inhibitory Concentrations, EC (RR -2) [12]: 0.13 microgram/mL; MIC [16]: ≤ 0.06 µg/mL; MIC [18]: 0.25 µg/mL; Minimum Inhibitory Concentrations, KP (URMC-3) [24]: 0.13 microgram/mL; Mimimum Inhibitory Concentrations, KP (RR -1) [25]: 0.5 microgram/mL; Minimum Inhibitory Concentrations, KP (URMC-2) [26]: 0.25 microgram/mL; Minimum Inhibitory Concentrations, KP (URMC-1) [27]: 0.13 microgram/mL |
| CC(C)(O/N=C(\C(=O)N[C@@H]1C(=O)N2C(C(=O)O)=C(C=Cc3ccc(C[n+]4ccc(-c5ccc(O)c(O)c5)cc4)cc3)CS[C@H]12)c1csc(N)n1)C(=O)O (mixture of isomers) [Compound 412, 1-(4-((E/Z)-2-((6R,7R)-7-((Z)-2-(2-aminothiazol-4-yl)-2-(((2-carboxypropan-2-yl)oxy)imino)acetamido)-2-carboxy-8-oxo-5-thia-1-azabicyclo[4.2.0]oct-2-en-3-yl)vinyl)benzyl)-4-(3,4-dihydroxyphenyl)pyridin-1-ium] | >64 | 32 | 4 | 4 | 2 | ≤ 0.06 | ≤ 0.06 | 16 | ≤0.06 | 0.25 | 0.25 | 32 | 16 | > 64 | 2 | 8 | 0.5 | >64 | 64 | 2 | Mimimum Inhibitory Concentrations, EC (RR -2) [12]: ≤0.06 microgram/mL; MIC [16]: ≤ 0.06 µg/mL; MIC [18]: 4 µg/mL; Minimum Inhibitory Concentrations, KP (URMC-3) [24]: 0.25 microgram/mL; Mimimum Inhibitory Concentrations, KP (RR -1) [25]: 0.5 microgram/mL; Minimum Inhibitory Concentrations, KP (URMC-2) [26]: ≤0.06 microgram/mL; Minimum Inhibitory Concentrations, KP (URMC-1) [27]: ≤0.06 microgram/mL |
| C#CC[N+]1(Cc2ccc(C=CC3=C(C(=O)O)N4C(=O)[C@@H](NC(=O)/C(=N\OC(C)(C)C(=O)O)c5csc(N)n5)[C@H]4SC3)cc2)CCc2cc(O)c(O)cc2C1 (mixture of isomers) [Compound 446, 2-(4-((E/Z)-2-((6R,7R)-7-((Z)-2-(2-aminothiazol-4-yl)-2-(((2-carboxypropan-2-yl)oxy)imino)acetamido)-2-carboxy-8-oxo-5-thia-1-azabicyclo[4.2.0]oct-2-en-3-yl)vinyl)benzyl)-6,7-dihydroxy-2-(prop-2-yn-1-yl)-1,2,3,4-tetrahydroisoquinolin-2-ium] | >64 | 16 |  |  |  |  |  |  |  |  |  | > 64 | 64 | > 64 | 16 | 2 | 0.5 | 64 | 32 | 2 |  |
